Drawing on patent US11739098B2 (BRISTOL-MYERS SQUIBB COMPANY, priority 2017, dated 2023), this text covers IC50 for 14 compounds.

Holding throughout (format): cell-based
Test [1] concerns the target T1, human TLR8 (Homo sapiens, UniProt Q9NR97).
T1 construct: host or cells: HEK-Blue cells (HEK293-derived reporter line)
T1 sequence (Q9NR97 27-1041): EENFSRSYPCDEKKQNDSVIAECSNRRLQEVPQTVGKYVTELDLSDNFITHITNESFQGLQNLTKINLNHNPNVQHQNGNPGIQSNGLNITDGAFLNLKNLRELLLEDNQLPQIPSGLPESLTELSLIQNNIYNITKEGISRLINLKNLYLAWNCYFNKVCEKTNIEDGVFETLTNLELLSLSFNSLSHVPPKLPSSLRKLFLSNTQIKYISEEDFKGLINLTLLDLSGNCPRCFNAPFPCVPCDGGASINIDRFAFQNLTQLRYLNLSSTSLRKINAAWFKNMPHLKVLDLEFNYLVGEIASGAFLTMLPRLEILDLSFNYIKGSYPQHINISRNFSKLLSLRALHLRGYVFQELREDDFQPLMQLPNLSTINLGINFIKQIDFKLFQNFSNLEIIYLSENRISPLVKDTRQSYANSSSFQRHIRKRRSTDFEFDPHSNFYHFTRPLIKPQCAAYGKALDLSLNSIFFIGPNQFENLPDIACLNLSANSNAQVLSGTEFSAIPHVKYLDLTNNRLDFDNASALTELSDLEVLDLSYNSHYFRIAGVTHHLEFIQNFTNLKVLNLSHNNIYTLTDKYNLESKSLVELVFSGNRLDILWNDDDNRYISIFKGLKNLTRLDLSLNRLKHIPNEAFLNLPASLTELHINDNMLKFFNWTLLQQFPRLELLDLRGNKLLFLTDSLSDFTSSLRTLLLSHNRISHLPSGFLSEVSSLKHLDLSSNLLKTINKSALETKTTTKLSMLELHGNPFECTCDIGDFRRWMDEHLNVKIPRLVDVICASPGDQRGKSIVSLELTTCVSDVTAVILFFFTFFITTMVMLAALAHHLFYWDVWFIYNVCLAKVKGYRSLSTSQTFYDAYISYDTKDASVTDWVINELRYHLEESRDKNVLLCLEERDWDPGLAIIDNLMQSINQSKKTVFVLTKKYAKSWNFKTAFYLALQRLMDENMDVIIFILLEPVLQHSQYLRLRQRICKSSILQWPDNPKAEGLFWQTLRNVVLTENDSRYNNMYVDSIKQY
Nature of the test: TLR8 inhibition reporter assay (HEK-Blue cells, SEAP reporter, R848 stimulation). Particulars: HEK-Blue cells overexpressing human TLR8, SEAP reporter, R848 15.9 μM. The gist of the method: (§1)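 Cells seeded per well (15000 TLR7, 20,000 TLR8, 25,000 TLR9); compound added over 0.05 nM–50 μM for 30 min at room temperature; agonist added (TLR7 gardiquimod 7.5 μM, TLR8 R848 15.9 μM, TLR9 ODN2006 5 nM); 22 h at 37 °C; SEAP measured; percent inhibition calculated.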
A general note: A reporter such as luciferase makes a cellular process visible.

In test [2] the target is T2, human TLR7 (Homo sapiens, UniProt Q9NYK1).
T2 construct: host or cells: HEK-Blue cells (HEK293-derived reporter line)
T2 sequence (Q9NYK1 27-1049): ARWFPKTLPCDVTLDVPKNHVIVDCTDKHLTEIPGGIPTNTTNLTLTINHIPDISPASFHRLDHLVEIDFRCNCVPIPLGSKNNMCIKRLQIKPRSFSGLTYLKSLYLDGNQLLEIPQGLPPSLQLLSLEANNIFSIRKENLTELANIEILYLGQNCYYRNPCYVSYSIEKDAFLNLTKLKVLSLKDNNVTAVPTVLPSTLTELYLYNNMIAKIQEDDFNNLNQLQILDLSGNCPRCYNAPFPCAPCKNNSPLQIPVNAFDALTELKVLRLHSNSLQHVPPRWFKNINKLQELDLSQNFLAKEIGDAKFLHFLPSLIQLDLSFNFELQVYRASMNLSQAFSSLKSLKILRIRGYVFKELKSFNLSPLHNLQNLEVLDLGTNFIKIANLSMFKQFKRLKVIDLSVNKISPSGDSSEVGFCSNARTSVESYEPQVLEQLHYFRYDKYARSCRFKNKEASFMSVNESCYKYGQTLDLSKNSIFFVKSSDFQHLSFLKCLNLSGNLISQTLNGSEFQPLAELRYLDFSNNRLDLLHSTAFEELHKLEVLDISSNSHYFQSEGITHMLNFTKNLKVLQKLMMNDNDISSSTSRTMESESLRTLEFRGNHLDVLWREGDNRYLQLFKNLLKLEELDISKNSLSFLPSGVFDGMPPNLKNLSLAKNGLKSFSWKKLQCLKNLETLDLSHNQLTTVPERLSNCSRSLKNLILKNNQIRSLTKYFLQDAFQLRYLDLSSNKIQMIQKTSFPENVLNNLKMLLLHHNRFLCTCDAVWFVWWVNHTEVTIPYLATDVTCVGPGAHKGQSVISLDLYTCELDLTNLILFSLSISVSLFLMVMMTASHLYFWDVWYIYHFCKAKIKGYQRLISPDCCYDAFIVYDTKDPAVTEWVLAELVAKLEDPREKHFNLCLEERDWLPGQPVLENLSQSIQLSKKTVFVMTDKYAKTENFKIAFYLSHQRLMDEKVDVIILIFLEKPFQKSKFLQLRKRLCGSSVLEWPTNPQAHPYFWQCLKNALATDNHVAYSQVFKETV
The test is described as follows: TLR7 inhibition reporter assay (HEK-Blue cells, SEAP reporter, gardiquimod stimulation). Particulars: HEK-Blue cells overexpressing human TLR7, SEAP reporter, gardiquimod 7.5 μM. The gist of the method: as §1

For test [3], the target named is T3, human TLR9 (Homo sapiens, UniProt Q9NR96).
T3 construct: host or cells: HEK-Blue cells (HEK293-derived reporter line)
T3 sequence (Q9NR96 26-1032): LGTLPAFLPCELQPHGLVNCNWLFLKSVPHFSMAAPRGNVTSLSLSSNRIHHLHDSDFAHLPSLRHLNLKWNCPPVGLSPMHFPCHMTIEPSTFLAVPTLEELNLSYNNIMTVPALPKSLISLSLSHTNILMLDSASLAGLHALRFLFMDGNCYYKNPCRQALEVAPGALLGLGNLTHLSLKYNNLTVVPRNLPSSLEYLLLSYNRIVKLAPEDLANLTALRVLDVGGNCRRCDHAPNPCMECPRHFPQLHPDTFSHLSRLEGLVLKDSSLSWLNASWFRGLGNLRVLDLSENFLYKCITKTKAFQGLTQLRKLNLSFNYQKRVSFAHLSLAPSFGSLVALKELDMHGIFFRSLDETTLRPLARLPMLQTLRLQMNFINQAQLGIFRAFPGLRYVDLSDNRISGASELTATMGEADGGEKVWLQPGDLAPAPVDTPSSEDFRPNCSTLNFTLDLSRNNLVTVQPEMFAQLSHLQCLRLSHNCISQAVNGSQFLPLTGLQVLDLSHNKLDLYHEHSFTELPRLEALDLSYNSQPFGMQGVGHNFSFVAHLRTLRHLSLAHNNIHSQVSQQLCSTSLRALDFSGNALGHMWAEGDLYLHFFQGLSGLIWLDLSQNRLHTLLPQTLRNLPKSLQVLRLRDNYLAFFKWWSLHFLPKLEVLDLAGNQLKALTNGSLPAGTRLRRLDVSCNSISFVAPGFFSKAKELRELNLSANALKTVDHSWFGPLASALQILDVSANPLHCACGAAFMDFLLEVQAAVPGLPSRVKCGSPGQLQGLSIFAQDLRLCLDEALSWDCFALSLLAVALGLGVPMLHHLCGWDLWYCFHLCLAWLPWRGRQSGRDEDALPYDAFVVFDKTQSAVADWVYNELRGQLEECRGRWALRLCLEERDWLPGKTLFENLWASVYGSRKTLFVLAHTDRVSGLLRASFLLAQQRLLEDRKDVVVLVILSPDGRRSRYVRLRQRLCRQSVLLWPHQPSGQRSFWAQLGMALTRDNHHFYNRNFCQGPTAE
The test is described as follows: TLR9 inhibition reporter assay (HEK-Blue cells, SEAP reporter, ODN2006 stimulation). As to conditions: HEK-Blue cells overexpressing human TLR9, SEAP reporter, ODN2006 5 nM. In short, it runs like this:
as §1

For the compound `CC(C)c1c(-c2ccnc3[nH]ncc23)[nH]c2ccc(C3CCN(CCN4CCCCCC4)CC3)cc12` [Example 660, 4-(5-(1-(2-(azepan-1-yl)ethyl)piperidin-4-yl)-3-isopropyl-1H-indol-2-yl)-1H-pyrazolo[3,4-b]pyridine], the IC50 – broadly, the concentration that inhibits the measured activity by half – in test [1] was less than 100 nM; in test [2], less than 100 nM; in test [3], 100 to 1000 nM.

Consider `CCN(CC)CCN1CCC(c2ccc3[nH]c(-c4ccnc5[nH]ncc45)c(C(C)C)c3c2)CC1` [Example 661, N,N-diethyl-2-(4-(3-isopropyl-2-(1H-pyrazolo[3,4-b]pyridin-4-yl)-1H-indol-5-yl)piperidin-1-yl)ethan-1-amine], for which the IC50 in test [1] is less than 100 nM; in test [2], less than 100 nM; in test [3], 100 to 1000 nM.

Regarding `CNCCN1CCC(c2ccc3[nH]c(-c4cccc5cccnc45)c(C)c3c2)CC1` [Example 662, N-methyl-2-(4-(3-methyl-2-(quinolin-8-yl)-1H-indol-5-yl)piperidin-1-yl)ethan-1-amine], the IC50 in test [1] is greater than 3130 nM; in test [2], 1000 to 50000 nM; in test [3], 1000 to 50000 nM.

As to `CNCCN1CCC(c2ccc3[nH]c(-c4cncc5ccccc45)c(C)c3c2)CC1` [Example 663, 2-(4-(2-(isoquinolin-4-yl)-3-methyl-1H-indol-5-yl)piperidin-1-yl)-N-methylethan-1-amine], the IC50 in test [1] was greater than 3130 nM; in test [2], 1000 to 50000 nM; in test [3], 100 to 1000 nM.

For the compound `CNCCN1CCC(c2ccc3[nH]c(-c4cncc5ccccc45)c(C)c3c2)CC1` [Example 665, 2-(4-(2-(isoquinolin-4-yl)-3-methyl-1H-indol-5-yl)piperidin-1-yl)-N-methylethan-1-amine], the IC50 in test [1] was greater than 3130 nM; in test [2] it was greater than 50000 nM; in test [3], 100 to 1000 nM.

Regarding `CNCCN1CCC(c2ccc3[nH]c(-c4ccc5ncccc5c4)c(C)c3c2)CC1` [Example 666, N-methyl-2-(4-(3-methyl-2-(quinolin-6-yl)-1H-indol-5-yl)piperidin-1-yl)ethan-1-amine], the concentration for half-maximal inhibition (IC50) was greater than 3130 nM in test [1], 1000 to 50000 nM in test [2] and 100 to 1000 nM in test [3].

For the compound `CNCCN1CCC(c2ccc3[nH]c(-c4ccc5[nH]ccc5c4)c(C)c3c2)CC1` [Example 667, N-methyl-2-(4-(3-methyl-1H,1′H-[2,5′-biindol]-5-yl)piperidin-1-yl)ethan-1-amine], the figures for the IC50 in test [1], in test [2] and in test [3] were 1000 to 50000 nM, 1000 to 50000 nM and 100 to 1000 nM, respectively.

In the case of `CNCCN1CCC(c2ccc3[nH]c(-c4ccnc5[nH]ccc45)c(C)c3c2)CC1` [Example 668, N-methyl-2-(4-(3-methyl-2-(1H-pyrrolo[2,3-b]pyridin-4-yl)-1H-indol-5-yl)piperidin-1-yl)ethan-1-amine], the IC50 in test [1] is less than 100 nM; in test [2], 100 to 1000 nM; in test [3], 100 to 1000 nM.

In the case of `CNCCN1CCC(c2ccc3[nH]c(-c4ccc5c(c4)CCO5)c(C)c3c2)CC1` [Example 669, 2-(4-(2-(2,3-dihydrobenzofuran-5-yl)-3-methyl-1H-indol-5-yl)piperidin-1-yl)-N-methylethan-1-amine], the concentration for half-maximal inhibition (IC50) is 100 to 1000 nM in test [1], 1000 to 50000 nM in test [2] and 1000 to 50000 nM in test [3].

Turning to `CNCCN1CCC(c2ccc3[nH]c(-c4ccc5c(c4)OCO5)c(C)c3c2)CC1` [Example 670, 2-(4-(2-(benzo[d][1,3]dioxol-5-yl)-3-methyl-1H-indol-5-yl)piperidin-1-yl)-N-methylethan-1-amine], the IC50 in test [1] lay in the range of 100 to 1000 nM; in test [2], 100 to 1000 nM; in test [3], 1000 to 50000 nM.

Consider `CNCCN1CCC(c2ccc3[nH]c(-c4cc5cc(OC)ccc5o4)c(C)c3c2)CC1` [Example 671, 2-(4-(2-(5-methoxybenzofuran-2-yl)-3-methyl-1H-indol-5-yl)piperidin-1-yl)-N-methylethan-1-amine], for which the IC50 in test [1] was greater than 3130 nM; in test [2], greater than 50000 nM; in test [3], 1000 to 50000 nM.

For the compound `CNCCN1CCC(c2ccc3[nH]c(-c4ccc5c(ccn5C)c4)c(C)c3c2)CC1` [Example 672, 2-(4-(1′,3-dimethyl-1H,1′H-[2,5′-biindol]-5-yl)piperidin-1-yl)-N-methylethan-1-amine], the 50% inhibitory concentration (IC50) in test [1] was greater than 3130 nM; in test [2], greater than 50000 nM; in test [3] it was 100 to 1000 nM.

For `CNCCN1CCC(c2ccc3[nH]c(-c4ccc5c(c4)OCCN5C)c(C)c3c2)CC1` [Example 673, N-methyl-2-(4-(3-methyl-2-(4-methyl-3,4-dihydro-2H-benzo[b][1,4]oxazin-7-yl)-1H-indol-5-yl)piperidin-1-yl)ethan-1-amine], the figures for the IC50 in test [1], in test [2] and in test [3] were greater than 3130 nM, greater than 50000 nM and 1000 to 50000 nM, respectively.

As for `CNCCN1CCC(c2ccc3[nH]c(-c4ccnc5[nH]ncc45)c(C(C)C)c3c2)C(F)(F)C1` (stereo not drawn) [Example 674, 2-(3,3-difluoro-4-(3-isopropyl-2-(1H-pyrazolo[3,4-b]pyridin-4-yl)-1H-indol-5-yl)piperidin-1-yl)-N-methylethan-1-amine], the IC50 in test [1] is less than 100 nM; in test [2] it was less than 100 nM; in test [3], 100 to 1000 nM.
